Data on ten compounds can be found in PubChem BioAssay (NCI).

Some test systems named below: HCC-2998 colon; HOP-92 NSCLC; LOX IMVI melanoma; MDA-MB-231 breast; MOLT-4 leukemia; NCI-H522 lung; NCI/ADR-RES ovarian; SK-MEL-28 melanoma; SN12C renal; U251 CNS.
Common to all, as to experiment: NCI-60 cell line screen, 48 h

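Grown in 96-well plates, cells were treated for 48 hours with each compound at five concentrations. Insufficient inhibition: endpoint recorded as highest concentration tested. The concentration for 50% growth inhibition is given as GI50. At the TGI there is no net growth.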

Regarding `CCCc1nnc2sc(COc3cc(Cl)c(OCc4nn5c(CCC)nnc5s4)cc3Cl)nn12`, the TGI in the assay on HCC-2998 colon is over 100 µM; with HOP-92 NSCLC, 70.7 µM; with LOX IMVI melanoma, over 100 µM; in the assay on MDA-MB-231 breast, over 100 µM; in the assay on MOLT-4 leukemia, over 100 µM; with NCI-H522 lung, over 100 µM. Besides, the TGI in the assay on NCI/ADR-RES ovarian, in the assay on SK-MEL-28 melanoma, in the assay on SN12C renal and in the assay with U251 CNS was over 100 µM in each case.

Turning to `COc1cccc(C2SC(C)C(=O)N2CCc2cccs2)c1` (stereo unspecified), the GI50 with HCC-2998 colon was 2.93 µM; in the assay with HOP-92 NSCLC, 1.16 µM; with LOX IMVI melanoma, 2.48 µM; in the assay with MDA-MB-231 breast it was 2.72 µM; in the assay with MOLT-4 leukemia, 2.34 µM; in the assay on NCI-H522 lung it was 1.71 µM. Moreover, the GI50 in the assay with NCI/ADR-RES ovarian was 2.6 µM; with SK-MEL-28 melanoma it was 3.6 µM; in the assay with SN12C renal it was 3.15 µM; in the assay with U251 CNS it was 3.1 µM. Further, the TGI in the assay on HCC-2998 colon came to 12.3 µM; with HOP-92 NSCLC, 4.37 µM; in the assay with LOX IMVI melanoma, 11.6 µM; in the assay with MDA-MB-231 breast, 13.9 µM; in the assay with MOLT-4 leukemia, 10.7 µM; in the assay with NCI-H522 lung it was 5.15 µM. For the same compound, the TGI was found to be 12.7 µM in the assay on NCI/ADR-RES ovarian, 14 µM in the assay on SK-MEL-28 melanoma, 13.5 µM in the assay with SN12C renal and 11.2 µM with U251 CNS.

For `Cc1c(O)c(OC2OC(CO)C(O)C(O)C2O)cc2c1C=C[C@@H]1[C@@]2(C)C(=O)C[C@]2(C)[C@@H]([C@@](C)(O)C(=O)CCC(C)(C)O)[C@H](O)C[C@@]12C` (stereo partly specified), the TGI with HCC-2998 colon was found to be 41 µM; in the assay on HOP-92 NSCLC, 40.8 µM; in the assay on LOX IMVI melanoma it was 59.2 µM; in the assay with MDA-MB-231 breast, 47.7 µM; in the assay on MOLT-4 leukemia, 63.7 µM; in the assay with NCI-H522 lung, 67.2 µM. Moreover, the TGI in the assay on NCI/ADR-RES ovarian was 69.4 µM; in the assay on SK-MEL-28 melanoma it was 43.1 µM; in the assay on SN12C renal, 44.1 µM; with U251 CNS it was 43.2 µM.

On to `Cc1cc2oc(C)c(S(=O)(=O)NC(=O)Nc3ccc(Cl)cc3)c(=O)c2c(=O)o1`, for which the TGI in the assay with HCC-2998 colon, in the assay with HOP-92 NSCLC, with LOX IMVI melanoma, in the assay with MDA-MB-231 breast, with MOLT-4 leukemia and in the assay with NCI-H522 lung was over 100 µM in each case. In addition, the TGI in the assay on NCI/ADR-RES ovarian, in the assay on SK-MEL-28 melanoma, in the assay on SN12C renal and in the assay on U251 CNS was over 100 µM in each case.

In the case of `O=C(N/N=C(/COc1ccccc1Cl)N=Cc1ccncc1)c1ccncc1`, the TGI with HCC-2998 colon, in the assay on HOP-92 NSCLC, in the assay with LOX IMVI melanoma, in the assay on MDA-MB-231 breast, in the assay on MOLT-4 leukemia and in the assay on NCI-H522 lung was over 100 µM throughout. For the same compound, the TGI with NCI/ADR-RES ovarian, with SK-MEL-28 melanoma, in the assay on SN12C renal and with U251 CNS was over 100 µM each time.

`C=Cc1nc(C#N)c(N)o1`: the TGI in the assay with HCC-2998 colon, in the assay on HOP-92 NSCLC, in the assay on LOX IMVI melanoma, in the assay with MDA-MB-231 breast, in the assay on MOLT-4 leukemia and in the assay with NCI-H522 lung was over 100 µM in each case. The TGI with NCI/ADR-RES ovarian, in the assay with SK-MEL-28 melanoma, with SN12C renal and with U251 CNS was over 100 µM each time.

In the case of `CCCCCN(CCCCC)CC(C)(C)C(O)c1ccc(OC)c2ccccc12` (stereo unspecified), the TGI came to 31.4 µM with HCC-2998 colon; 12.7 µM with HOP-92 NSCLC; 4.99 µM in the assay with LOX IMVI melanoma; 31.2 µM with MDA-MB-231 breast; 76.9 µM with MOLT-4 leukemia; 20.3 µM with NCI-H522 lung. In addition, the TGI came out at 26.3 µM with NCI/ADR-RES ovarian, 24.5 µM in the assay with SK-MEL-28 melanoma, 25.2 µM in the assay on SN12C renal and 22.7 µM in the assay on U251 CNS.

For `CC(=O)OC(C)(C)CCC(=O)[C@](C)(O)[C@H]1[C@H](O)C[C@@]2(C)[C@@H]3CC=C4C(C)=C(OC5OC(CO)C(O)C(O)C5O)C(=O)C[C@@H]4[C@]3(C)C(=O)C[C@]12C` (stereo partly specified), the TGI in the assay with HCC-2998 colon, with HOP-92 NSCLC, in the assay with LOX IMVI melanoma, with MDA-MB-231 breast, with MOLT-4 leukemia and in the assay with NCI-H522 lung was over 100 µM in each case. Further, the TGI with NCI/ADR-RES ovarian, in the assay on SK-MEL-28 melanoma, in the assay on SN12C renal and in the assay with U251 CNS was over 100 µM in each case.

`COc1c2ccsc2c(OC)c2ccsc12`: the TGI in the assay with HCC-2998 colon, in the assay with HOP-92 NSCLC, with LOX IMVI melanoma, in the assay on MDA-MB-231 breast, in the assay with MOLT-4 leukemia and in the assay on NCI-H522 lung was over 100 µM each time. The TGI in the assay with NCI/ADR-RES ovarian, in the assay on SK-MEL-28 melanoma, with SN12C renal and in the assay on U251 CNS was over 100 µM throughout.

For the compound `CCOC(=O)C(=CN1CCNC1=S)C(=O)OCC`, the TGI in the assay with HCC-2998 colon, in the assay on HOP-92 NSCLC, with LOX IMVI melanoma, with MDA-MB-231 breast, in the assay on MOLT-4 leukemia and in the assay with NCI-H522 lung was over 100 µM throughout. For the same compound, the TGI in the assay with NCI/ADR-RES ovarian, with SK-MEL-28 melanoma, in the assay with SN12C renal and with U251 CNS was over 100 µM throughout. Besides, the GI50 in the assay on HOP-92 NSCLC was over 100 µM.
